From US12728161B2 (priority 2019, dated 2026)
Entries after “also recorded” stand apart in the source; their conditions may differ.

Assays:
[1] = system: pseudotyped NiV/VSV virus (pNiV)
[2] = system: SARS-CoV-2 (isolate USA-WA1/2020); assay type: cell-based
[3] = system: Human Cytomegalovirus (HCMV); assay type: cell-based
[4] = system: vesicular stomatitis virus (VSV); assay type: cell-based
[5] = system: Human respiratory syncytial virus (RSV A2 strain); assay type: cell-based
[6] = system: HSV-1 KOS; test: Plaque assay for HSV-1 infections; assay type: cell-based; conditions: virions treated with XM-01 before infection, various concentrations
Method: At 3 h post-inoculation, the medium was removed. At 18 to 24 h post-infection, the culture medium was removed, and cells were fixed with an ice-cold methanol-acetone solution (2:1 ratio) for 20 min at […] and air-dried. Virus titers were determined by immunoperoxidase staining with anti-HSV polyclonal antibody HR50 (Fitzgerald Industries, Concord, MA) (Roller et al., “Structure-Function Analysis of Herpes Simplex Virus Glycoprotein B with Fusion-from-without Activity,” Virology 382:207-216 (2008), which is hereby incorporated by reference in its entirety).

[7] = system: bovine rotavirus strain NCDV; test: Rotavirus infection assay in MA104 cells; assay type: cell-based; conditions: non-enveloped virus
Method: 18β-glycyrrhetinic acid (GRA) (Sigma-Aldrich) stock solutions were prepared to a concentration of 100 mg/mL in DMSO and aliquots were stored at −80° C. The stock solutions were diluted to working concentrations in DMEM without FBS. For the control compounds, MA104 (ATCC) cells were treated for 6 h with 25 μg/mL GRA. The viability was measured with the Promega CellTiterGlo Assay according to the manufacturer's protocol, with digitonin as the control for 100% cytotoxicity. Data shown are representative of two experiments, with each concentration tested in triplicate in each experiment. Error bars indicate SEM. […] Mock-infected wells received 50 μl of 0% M199 vehicle media. 50 μl of fresh 2× control and experimental compounds were added and at 18 h post-infection, the cells were fixed for 10 min with 80% acetone (Hardy et al., “18 Beta-glycyrrhetinic Acid Inhibits Rotavirus Replication in Culture,” Virol. J. 9:96 (2012), which is hereby incorporated by reference in its entirety).

[8] = target: NiV F and G on pNiV virions (Nipah virus, UniProt Q9IH62+Q9IH63)
[9] = target: NiV F protein (Nipah virus, UniProt Q9IH63)
[10] = system: NiV F and G glycoproteins; assay type: cell-based; conditions: XM-01 treatment
[11] = system: HEK293T cells expressing NiV F and G; assay type: cell-based
[12] = system: A/California/04/2009 (H1N1); assay type: cell-based, influenza virus
[13] = system: pNiV viral membranes; set-up: species or system NiV
[14] = target: NiV G glycoprotein (Nipah virus, UniProt Q9IH62)
[15] = system: norovirus; test: Plaque assay for norovirus infection in RAW 264.7 cells; assay type: cell-based; conditions: non-enveloped virus
Method: RAW 264.7 (ATCC) cells were infected with serial dilutions of norovirus for 1 h. 3% wt/vol Seaplaque agarose in 2×MEM media was placed as a first overlay. Then, cells were incubated for 48 h when plaques were visible and counted.

[16] = system: Vero cells
[17] = system: NiV; conditions: cited from earlier work

NiV G glycoprotein, sequence (Q9IH62 whole entry, looked up): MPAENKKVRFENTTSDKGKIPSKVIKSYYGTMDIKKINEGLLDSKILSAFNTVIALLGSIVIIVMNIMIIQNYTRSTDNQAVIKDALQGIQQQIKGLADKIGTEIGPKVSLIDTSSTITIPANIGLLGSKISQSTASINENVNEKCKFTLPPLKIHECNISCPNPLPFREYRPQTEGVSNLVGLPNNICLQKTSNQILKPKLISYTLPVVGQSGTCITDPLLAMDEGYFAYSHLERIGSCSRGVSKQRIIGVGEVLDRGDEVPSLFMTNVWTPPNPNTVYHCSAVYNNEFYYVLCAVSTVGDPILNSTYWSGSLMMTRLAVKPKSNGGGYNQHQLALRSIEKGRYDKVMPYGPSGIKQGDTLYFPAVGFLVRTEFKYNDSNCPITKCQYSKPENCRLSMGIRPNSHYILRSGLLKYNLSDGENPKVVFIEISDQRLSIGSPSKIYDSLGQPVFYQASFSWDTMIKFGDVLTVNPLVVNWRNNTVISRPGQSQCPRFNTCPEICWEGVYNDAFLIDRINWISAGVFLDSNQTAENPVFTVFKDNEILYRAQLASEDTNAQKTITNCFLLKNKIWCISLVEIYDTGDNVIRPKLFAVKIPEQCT
NiV F protein, sequence (Q9IH63 110-546 limits assumed): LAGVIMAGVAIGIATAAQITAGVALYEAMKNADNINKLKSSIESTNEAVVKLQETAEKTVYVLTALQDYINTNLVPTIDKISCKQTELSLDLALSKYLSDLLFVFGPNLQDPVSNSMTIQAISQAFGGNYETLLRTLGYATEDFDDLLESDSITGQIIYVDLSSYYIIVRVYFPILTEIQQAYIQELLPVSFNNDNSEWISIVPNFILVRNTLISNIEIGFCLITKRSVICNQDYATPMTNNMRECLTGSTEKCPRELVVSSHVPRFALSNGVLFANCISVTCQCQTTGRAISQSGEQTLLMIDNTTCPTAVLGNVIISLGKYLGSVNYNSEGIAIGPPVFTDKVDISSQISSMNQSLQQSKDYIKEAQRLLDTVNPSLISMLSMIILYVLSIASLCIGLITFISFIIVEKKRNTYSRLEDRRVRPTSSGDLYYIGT
NiV F protein, sequence (Q9IH63 27-109 limits assumed): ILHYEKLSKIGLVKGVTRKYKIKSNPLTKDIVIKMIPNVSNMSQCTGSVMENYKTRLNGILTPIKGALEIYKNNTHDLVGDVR

## CCCCNC(=O)C(CCSSC(=O)c1ccccc1)NC(=O)c1ccccc1 (stereo not drawn) [XM-06]
[1]
  infectivity of pNiV in Vero cells: best inhibited pNiV infections

## COC(=O)C(CSSC(=O)c1ccccc1)NC(=O)c1ccccc1 (stereo not drawn) [XM-01]
[2]
  inactivation of SARS-CoV-2: complete inactivation
  inhibition of plaque formation of SARS-CoV2: effective to inhibit plaque formation
[3]
  inhibition of HCMV infection: inhibited by XM-01 in a concentration-dependent fashion
[4]
  inhibition of VSV infection: inhibited by XM-01 in a concentration-dependent fashion
[1]
  EC50: ~1 µM
  antiviral activity in the absence of light: did not need light to inhibit pNiV infection
  difference between the inhibitory and cytotoxic concentrations: ~ 3 log
  infectivity of treated virions: highly inhibited
  inhibition of infection post-entry (time of XM-01 addition): completely incapable of inhibiting the infection
  viral infection after pre-treatment of cells: did not significantly reduce viral infection
[5]
  inhibition of RSV infection: inhibited by XM-01 in a concentration-dependent fashion
[6]
  inhibition of HSV-1 infection: inhibited by XM-01 in a concentration-dependent fashion
[7]
  inhibition of rotavirus entry: not inhibited
[8]
  antibody binding to F or G (conformation): no significant changes in antibody binding to either glycoprotein
[9]
  F-triggering: not decreased
[10]
  cell surface expression of F and G glycoproteins: not be significantly affected
[11]
  cell-cell membrane fusion (syncytia): significantly reduced levels of cell-cell membrane fusion
[12]
  EC50: high nanomolar to low micromolar range
  inhibition of influenza A/California/04/2009 infection: inhibited by XM-01 in a concentration-dependent fashion; also recorded: significantly inhibited
  neutralization of influenza: complete neutralization
[13]
  viral membrane appearance by electron microscopy: compromised membranes
[14]
  ephrinB2/G binding: did not interfere with the receptor-binding ability of the G glycoprotein
[15]
  inhibition of norovirus entry: not inhibited
[16]
  CC50: ~1000 µM
  cytotoxicity: little to no cytotoxicity
  cytotoxicity levels: low levels of cytotoxicity

## CC(=O)NC(CSSC(=O)c1ccccc1)C(=O)NCc1ccccc1 (stereo not drawn) [XM-02]
[1]
  infectivity of pNiV in Vero cells: best inhibited pNiV infections
  inhibitory properties against pNiV: inhibitory properties
[16]
  cytotoxicity levels: low levels of cytotoxicity

## COC(=O)C(CSSC(C)=O)NC(=O)c1ccccc1 (stereo not drawn) [XM-03]
[1]
  infectivity of pNiV in Vero cells: best inhibited pNiV infections
  inhibitory properties against pNiV: inhibitory properties
[16]
  cytotoxicity levels: low levels of cytotoxicity

## C=O [formalin, reference compound]
[2]
  inactivation of SARS-CoV-2: complete inactivation

## O=C(SSC(=O)c1ccccc1)c1ccccc1 [XM-12]
[1]
  infectivity of pNiV in Vero cells: best inhibited pNiV infections

## [Na+].[SH-] [NaHS]
[17]
  antiviral effects against NiV: known antiviral effects against NiV, although at high (millimolar) concentrations

## COC(=O)C(CSC(=O)c1ccccc1)NC(=O)c1ccccc1 (stereo not drawn) [XM-10]
[1]
  inhibitory properties against pNiV: inhibitory properties
[16]
  cytotoxicity levels: low levels of cytotoxicity

## C=CCN1C(=O)/C(=C/c2ccc(-c3ccccc3)o2)SC1=S [LJ001, reference compound]
[1]
  antiviral activity in the absence of light: severely reduced in the absence of light
[11]
  cell-cell fusion (syncytia): affect cell-cell fusion

## COC(=O)C(CSC(C)=O)NC(=O)c1ccccc1 (stereo not drawn) [XM-11]
[1]
  inhibitory properties against pNiV: inhibitory properties
[16]
  cytotoxicity levels: low levels of cytotoxicity
